# Measurements: US20080275081A1, “Novel thrombomodulin expression promoters” (Kowa Company, Ltd., priority 2002, published 2008)
# Key:
# [1] = tested on: TM m-RNA expression in HUVECs; test: TM mRNA expression in HUVECs by Northern blot, time course; type: cell-based, human; conditions: 10^-5 M, incubated for the indicated time, FIG. 2
# Procedure: HUVECs were plated in HuMedia-EG2 medium (Kurabo Inc.) to which 2% (vol/vol) fetal bovine serum, 50 μg/ml gentamicin, 50 ng/ml amphotericin B, 10 ng/ml hEGF, 5 ng/ml hFGF-B, 1 μg/ml hydrocortisone and 10 μg/ml heparin were added. Subsequently, pitavastatin (at a final concentration of 10^−5 M) was added to the medium, and incubated for the indicated time with 5% CO2 at 37° C. Total RNA was extracted by using TRIZOL reagent (Life Technologies, Inc.) and the levels of TM m-RNA expression were measured by the Northern blot method, which is a usual method.
# [2] = tested on: thrombomodulin (TM) antigen in normal human umbilical vein endothelial cells (HUVECs); test: TM antigen level in HUVECs by enzyme immunoassay after 24 h incubation with statin; type: cell-based; conditions: 10^-7 M to 10^-3 M, control (0.01% DMSO) = 100%, FIG. 1
# Procedure: Normal human umbilical vein endothelial cells (HUVECs) were plated at a density of 2×10^5 cells/ well in a 24-well plate with HuMedia-EG2 medium (Kurabo Inc.) to which 2% (vol/vol) fetal bovine serum, 50 μg/ml gentamicin, 50 ng/ml amphotericin B, 10 ng/ml hEGF, 5 ng/ml hFGF-B, 1 μg/ml hydrocortisone and 10 μg/ml heparin were added. Subsequently, each test substance (pitavastatin, fluvastatin and pravastatin) was added to the medium at a final concentration of 10^−7 M to 10^−3 M, and incubated for 24 hours with 5% CO2 at 37° C. After the incubation, the cells were washed 3 times with a phosphate buffer solution (pH 7.4), and suspended in 50 mmol/L Tris-HCl (pH 7.4) that contained 0.15 mol/L NaCl, 0.5% Triton X-100 and 1 mmol/L benzamide hydrchloride, then, TM was extracted. The levels of TM antigen were measured by enzyme immunoassay using the monoclonal antibodies TMmAb 2, 11 and 20. In the case where the value of the control (containing an equivalent weight of DMSO (0.01%)) is assigned to 100%, the effects on the TM antigen levels existing in the cellular proteins due to the addition of each test substance were measured.
structure (smiles),measurement,setting,value
"O=C(O)C[C@H](O)C[C@H](O)/C=C/c1c(C2CC2)nc2ccccc2c1-c1ccc(F)cc1 [pitavastatin, (+)-(3R, 5S, 6E)-7-[2-cyclopropyl-4-(4-fluorophenyl)-3-quinolyl]-3,5-dihydroxy-6-heptenoic acid]","ratio of the TM expression level (TM m-RNA) to the control, time course",[1],increased drastically after 12 hours
same,ratio of the TM antigen level/cellular protein to the control,[2],significant increase level
